Entries after “also recorded” stand apart in the source; their conditions may differ.
Key:
MraY = type: binding, Aquifex aeolicus; conditions: MraY (2.5 µM) and C55-P (10 µM), molar ratio 1:4, pH 8.0 vs pH 5.0; negative control
Excerpt: UptA is a member of the DedA family of transporters whose cellular functions are potentially driven by proton-motive force and provide conditional fitness to bacteria under alkaline conditions ([25], [26], [36]). […] To this end, we equilibrated C55-P with UptA at a protein/ligand molar ratio of 1:4 in a buffer of the same composition but at pH 8.0 and 5.0. […] As a negative control, we tested for pH sensitivity of C55-P binding to MraY, the latter being the downstream enzyme in the peptidoglycan pathway that couples UM5 to C55-P. To this end, we equilibrated MraY and C55-P at a molar ratio of 1:4 in a buffer of pH 8.0 and pH 5.0.

UptA R118A/R119A = assay: Native MS of C55-P binding to UptA double mutant R118A/R119A; parameters: species or system Bacillus subtilis; conditions: 5 µM protein, 10 µM C55-P, pH 8.02, 0.05% LDAO, 200 mM ammonium acetate, 100 V; mean of three biological replicates
UptA Q64A = assay: Native MS of C55-P binding to UptA mutant Q64A; parameters: species or system Bacillus subtilis; conditions: 5 µM protein, 10 µM C55-P, pH 8.02, 0.05% LDAO, 200 mM ammonium acetate, collisional activation 100 V; three biological replicates
Excerpt: Conserved arginine residues in the putative membrane reentrant loops of E. coli DedA proteins YqjA (R130) and YghB (R136) are important for the cellular role of these proteins ([36]). […] How these residues impact substrate interactions, however, is not known. Based on the model structure of UptA predicted by AlphaFold, the R112 residue should engage Q64 while R118 is able to form hydrogen bonds with E32, H119, and W146 to potentially stabilize the membrane reentrant loops (Fig. 3A). To test for the impact of these residues on C55-P binding, we generated the E32A, Q64A, R112A, R118A, H119A, and W146A UptA single mutants. After purification of the proteins, using the same protocol as the wild type (WT) (Materials and Methods and SI Appendix, Fig. S5), we equilibrated aliquots of each protein variant (5 µM) with C55-P (10 µM) and recorded spectra using the same instrument settings. […] We additionally generated a double mutant R112E/R118E in which the polarity of both native arginine residues in the wild type are reversed.
Expression and purification of UptA
Plasmids were used to transform chemically competent E. coli C43(DE3) cells (Lucigen) and selected on LB/Agar containing 100 μg/ml ampicillin at 37 °C. Single colonies were used to inoculate 60 mL LB containing 100 μg/ml ampicillin and were grown at 37 °C overnight for 16 h. […]

CC(C)=CCC/C(C)=C/CC/C(C)=C/CC/C(C)=C\CC/C(C)=C\CC/C(C)=C\CC/C(C)=C\CC/C(C)=C\CC/C(C)=C\CC/C(C)=C\CC/C(C)=C\COP(=O)(O)O [C55-P, undecaprenyl phosphate]
pH sensitivity of C55-P binding to MraY (in words) (MraY): no pH-dependency in C55-P binding by MraY; also recorded: no significant difference in the intensity of C55-P bound to MraY at pH 8.0 and at pH 5.0 | reduction in C55-P binding, R118A/R119A (UptA R118A/R119A): 46% | reduction in C55-P binding intensity compared to wild type, Q64A (in words) (UptA Q64A): modest reduction

Source: publication PMC11474028, “Lipopeptide antibiotics disrupt interactions of undecaprenyl phosphate with UptA” (Proceedings of the National Academy of Sciences of the …, 2024)
